Reference: patent publication US10745432B2, “Crystal of 6′-sialyllactose sodium salt, and process for producing same” (KYOWA HAKKO BIO CO., LTD., priority 2015, dated 2020)

Tests used:
Format in all cases: physicochemical
[1] = Degree of coloration (transmittance at 430 nm) when a heat load at 60° C. was applied; conditions: for degree of coloration, transmittance T % 430 nm: solution at 100 g/L in terms of anhydrate, 1 cm
Experimental: Further, with respect to the crystal of 6SL sodium salt 4.6-hydrate and known amorphous 6SL sodium salt, the degree of coloration when a heat load at 60° C. was applied was compared, and the results are shown in Table 4.
The degree of coloration is expressed by transmittance T % 430 nm 100×10^−A (A=Abs: 430 nm, 1 cm), which was obtained by dissolving each substance at 100 g/L in terms of an anhydrate and performing measurement for the solution.

[2] = Hygroscopicity: weight change on storage at 30° C., relative humidity 80%
Experimental: The hygroscopicity of the obtained crystal of 6SL sodium salt 4.6-hydrate and that of a 6SL sodium reagent (amorphous salt, manufactured by Carbosynth Limited) were compared under the following conditions.
Storage condition: 30° C., relative humidity: 80% (apparatus: THE051FA, manufactured by Advantec Toyo Kaisha Ltd.).
Measurement method: After about 100 mg of a sample was weighed with a precision balance, the sample was packed in a glass container and stored under the above-mentioned conditions. Thereafter, the sample was weighed again, and the weight change ratio was calculated.
Incidentally, the weight of the sample at each elapsed time was measured by assuming the weight of each sample at the start of the test to be 100%.

[3] = pH of aqueous solution of the crystal; conditions: aqueous solution at 100 g/L in terms of crystal of 6SL sodium salt 4.6-hydrate
Experimental: As for the pH, an aqueous solution at 100 g/L in terms of crystal of 6SL sodium salt 4.6-hydrate was measured.

Compound: CC(=O)NC1C(O)CC(OCC2OC(OC3C(CO)OC(O)C(O)C3O)C(O)C(O)C2O)(C(=O)[O-])OC1C(O)C(O)CO.[Na+] (stereo not drawn) [Amorphous salt, 6SL sodium salt, reference compound]
- degree of coloration, transmittance T % 430 nm ([1]; elapsed time 0 days, sodium salt): 99.4%
- degree of coloration, transmittance T % 430 nm ([1]; elapsed time 3 days, sodium salt): 99.0%
- degree of coloration, transmittance T % 430 nm ([1]; elapsed time 6 days, sodium salt): 98.8%
- weight of sample (weight at start of test = 100%) ([2]; elapsed time 0.5 hours, sodium salt): 114.4%
- weight of sample (weight at start of test = 100%) ([2]; elapsed time 2.5 hours, sodium salt): 119.6%
- weight of sample (weight at start of test = 100%) ([2]; elapsed time 8 hours, sodium salt): 122.9%
- weight of sample (weight at start of test = 100%) ([2]; elapsed time 20 hours, sodium salt): 124.1%

Compound: CC(=O)NC1C(O)CC(OCC2OC(OC3C(CO)OC(O)C(O)C3O)C(O)C(O)C2O)(C(=O)[O-])OC1C(O)C(O)CO.[Na+] (stereo not drawn) [Crystal of sodium salt, 6SL sodium salt 4.6-hydrate]
- degree of coloration during storage (in words) ([1]; compared with known amorphous 6SL sodium salt): lower than that of known amorphous 6SL sodium salt
- degree of coloration, transmittance T % 430 nm ([1]; elapsed time 0 days): 99.9%
- degree of coloration, transmittance T % 430 nm ([1]; elapsed time 3 days): 99.8%
- degree of coloration, transmittance T % 430 nm ([1]; elapsed time 6 days): 99.8%
- hygroscopicity (in words) ([2]; compared with amorphous salt): lower hygroscopicity than the amorphous salt
- weight of sample (weight at start of test = 100%) ([2]; elapsed time 0 hours (start, assumed 100%)): 100.0%
- weight of sample (weight at start of test = 100%) ([2]; elapsed time 0.5 hours): 98.8%
- weight of sample (weight at start of test = 100%) ([2]; elapsed time 2.5 hours): 98.6%
- weight of sample (weight at start of test = 100%) ([2]; elapsed time 8 hours): 98.4%
- weight of sample (weight at start of test = 100%) ([2]; elapsed time 20 hours): 98.7%
- pH [3]: 6.23
